Assay results as given in patent publication US11292782B2, “Diarylhydantoin compounds and methods of use thereof” (Nuvation Bio Inc., priority 2018, dated 2022).
Read-outs that look alike come from different tables or passages of the source.

Legend:
Type in all cases: cell-based
[1] = biological target: Human AR (Homo sapiens (Human), UniProt P10275); assay: AR antagonist assay (GRE-LUC luciferase, transfected HEK-293 cells, with 0.1 nM R1881); conditions: for IC50: with 0.1 nM R1881; for inhibition at 1 µM: HEK293
Human AR, sequence (P10275 whole entry): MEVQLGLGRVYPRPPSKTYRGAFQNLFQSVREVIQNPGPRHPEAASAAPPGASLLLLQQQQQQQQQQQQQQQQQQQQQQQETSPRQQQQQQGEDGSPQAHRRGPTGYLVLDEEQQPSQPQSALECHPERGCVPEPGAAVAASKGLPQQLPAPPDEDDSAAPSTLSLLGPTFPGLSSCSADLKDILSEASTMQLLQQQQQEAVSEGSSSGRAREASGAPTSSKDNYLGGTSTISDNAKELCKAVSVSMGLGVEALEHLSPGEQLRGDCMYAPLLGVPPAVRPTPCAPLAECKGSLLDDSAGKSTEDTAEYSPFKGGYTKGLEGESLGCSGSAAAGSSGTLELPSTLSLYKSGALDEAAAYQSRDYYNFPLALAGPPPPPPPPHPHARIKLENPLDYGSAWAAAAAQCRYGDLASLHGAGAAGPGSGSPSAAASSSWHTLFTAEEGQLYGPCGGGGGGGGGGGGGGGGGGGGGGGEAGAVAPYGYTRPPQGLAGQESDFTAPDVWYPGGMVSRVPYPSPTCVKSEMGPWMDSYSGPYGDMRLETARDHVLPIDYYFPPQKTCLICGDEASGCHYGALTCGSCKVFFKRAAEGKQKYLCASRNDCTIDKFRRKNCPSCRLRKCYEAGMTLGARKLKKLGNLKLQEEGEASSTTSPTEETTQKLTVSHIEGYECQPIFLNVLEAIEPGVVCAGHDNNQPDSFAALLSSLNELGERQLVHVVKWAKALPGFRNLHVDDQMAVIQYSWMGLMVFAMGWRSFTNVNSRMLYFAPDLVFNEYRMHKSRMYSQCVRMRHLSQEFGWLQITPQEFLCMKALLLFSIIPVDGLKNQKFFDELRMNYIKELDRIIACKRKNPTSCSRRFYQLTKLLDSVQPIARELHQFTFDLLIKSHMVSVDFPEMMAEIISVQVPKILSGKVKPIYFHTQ
Method: Human AR cDNA cloned into pCMV vector, GRE-LUC, and CMV-renilla-LUC were used to transfect cells. HEK-293 cells (ATCC) were plated at 120,000 cells per well of a 24 well plate in DME+5% csFBS (Fisher Scientific, Waltham, Mass.). The cells were transfected using Lipofectamine (Life Technologies, Carlsbad, Calif.) with 0.25 μg GRE-LUC, 0.010 μg CMV-LUC (renilla luciferase) and 25 ng of the AR. […] Luciferase assay was performed 48 hrs after transfection. Firefly luciferase assay values were normalized to renilla luciferase values and were graphed using graphpad prism software (La Jolla, Calif.). […] The IC50 or EC50 values were determined using non-linear regression and […] logistics fitting.

[2] = biological target: GR (Homo sapiens (Human), UniProt P04150); assay: GR antagonist assay (GRE-LUC luciferase, transfected COS-7 cells, with 0.1 nM dexamethasone); conditions: for IC50 / GR antagonist assay, % of vehicle: in the presence of 0.1 nM dexamethasone; for inhibition at 10 µM: COS-7, read-out: GR Antagonism % inhibition at 10 μM; for GR antagonist assay, % of vehicle: 10 μM
GR, sequence (P04150 whole entry): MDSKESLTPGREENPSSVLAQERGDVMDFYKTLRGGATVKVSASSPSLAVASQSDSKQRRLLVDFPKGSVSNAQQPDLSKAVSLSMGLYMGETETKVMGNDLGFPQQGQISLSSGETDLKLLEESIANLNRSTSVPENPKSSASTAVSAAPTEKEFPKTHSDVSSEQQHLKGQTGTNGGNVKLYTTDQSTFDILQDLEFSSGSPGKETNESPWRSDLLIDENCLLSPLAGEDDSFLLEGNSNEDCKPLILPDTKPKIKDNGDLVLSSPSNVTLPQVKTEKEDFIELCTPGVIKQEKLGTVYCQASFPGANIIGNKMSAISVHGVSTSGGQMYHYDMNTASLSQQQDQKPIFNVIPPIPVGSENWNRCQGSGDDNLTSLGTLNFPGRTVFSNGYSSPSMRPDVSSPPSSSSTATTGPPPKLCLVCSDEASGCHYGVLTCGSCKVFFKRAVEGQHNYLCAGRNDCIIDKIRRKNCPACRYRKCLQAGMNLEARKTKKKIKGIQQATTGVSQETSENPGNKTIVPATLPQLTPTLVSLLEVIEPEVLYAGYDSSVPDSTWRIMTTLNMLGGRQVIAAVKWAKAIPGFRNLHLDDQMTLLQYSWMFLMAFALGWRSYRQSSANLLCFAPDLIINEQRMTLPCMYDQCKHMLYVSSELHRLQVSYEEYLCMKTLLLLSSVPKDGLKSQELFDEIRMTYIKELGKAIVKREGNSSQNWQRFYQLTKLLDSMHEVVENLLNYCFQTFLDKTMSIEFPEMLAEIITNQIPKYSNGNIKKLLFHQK
Method: COS-7 cells (ATCC, Manassas, Va.) were plated in 24 well plates in DME+5% csFBS without phenol red at 70,000 cells/well. Once the cells attached to the plates (typically after overnight incubation after plating), they were transfected in OPTIMEM medium (Life Technologies) using lipofectamine reagent (Life Technologies) with 0.25 μg GRE-LUC, 25 ng pCR3.1 GR, and 10 ng CMV-renilla LUC per well. Twenty-four hours after transfection, the cells were fed with DME+5% csFBS without phenol red (Fisher Scientific, Waltham, Mass.) and treated with the test compounds (1 pM to 10 μM dose range) in the presence of 0.1 nM dexamethasone (Sigma, St. Louis, Mo.). Sixteen to twenty-four hours after treatment, a luciferase assay was performed using the Dual Luciferase assay kit (Promega, Madison, Wis.). Firefly luciferase values were normalized to Renilla luciferase numbers.

[3] = test system: LNCaP-abl cells; assay: Cell proliferation assay, LNCaP-abl (CellTiter-Glo); conditions: 72 h, 3 days; for activity at 3 µM: read-out: cell proliferation, % of vehicle at 3 μM; for activity at 10 µM: read-out: cell proliferation, % of vehicle at 10 μM
Method: LNCaP-abl (3,000 cells/well, received from Dr. Myles Brown, Dana Farber Cancer Institute), 22RV1 (1,000 cells/well), LNCaP (5,000 cells/well), or COS (3,000 cells/well) cells were plated in 96 well plates in 50 μl RPMI+10% FBS (Fisher Scientific, Waltham, Mass.). LNCaP, COS, and 22RV1 cells were obtained from ATCC. Cells were treated in RPMI+10% FBS with test articles, ranging from 1 nM to 10 μM. Three days later, viable cells (LNCaP-abl, 22RV1, and COS) were measured by CellTiter-Glo assay (Promega, Madison, Wis.). For LNCaP cells, medium containing test article was changed after 3 days of treatment, and after an additional 3 days of culture, viable cells were measured by CellTiter-Glo assay.
The LNCaP cell line is androgen responsive with AR and PSA expression. It contains a T877A mutation in the AR. The 22RV1 cell line is positive for AR and PSA with additional AR splice variants and is insensitive to androgen for cell proliferation. The LNCaP-abl cell line expresses both AR and GR but is insensitive to androgen for cell proliferation. COS-7 is used as an AR negative cell line in this experiment.

| Compound | IC50 [1] [nM] | IC50 [2] [nM] | inhibition at 10 µM [2] [%] | further results |
| --- | --- | --- | --- | --- |
| CC1(C)C(=O)N(c2ccc(C#N)c(C(F)(F)F)c2)C(=S)N1c1ccc(CNC(=O)c2nccs2)c(F)c1 [Compound 2] | 31 | > 10000 |  | activity at 3 µM [3]: 78%; activity at 10 µM [3]: 71% |
| CC1(C)C(=O)N(c2ccc(C#N)c(C(F)(F)F)c2)C(=S)N1c1ccc(CNC(=O)c2ncc[nH]2)c(F)c1 [Compound 3] | 180 | > 10000 |  |  |
| CC1(C)C(=O)N(c2ccc(C#N)c(C(F)(F)F)c2)C(=S)N1c1ccc(CNC(=O)c2cncs2)c(F)c1 [Compound 5] | 93 | > 10000 |  | activity at 3 µM [3]: 99%; activity at 10 µM [3]: 96% |
| CC(C)C(=O)NCc1ccc(N2C(=S)N(c3ccc(C#N)c(C(F)(F)F)c3)C(=O)C2(C)C)cc1F [Compound 7] | 180 | > 10000 |  | activity at 3 µM [3]: 67%; activity at 10 µM [3]: 73% |
| CC1(C)C(=O)N(c2ccc(C#N)c(C(F)(F)F)c2)C(=S)N1c1ccc(CNC(=O)C2CC2)c(F)c1 [Compound 11] | 120 | > 10000 |  | activity at 3 µM [3]: 103%; activity at 10 µM [3]: 79% |
| CC1(C)C(=O)N(c2ccc(C#N)c(C(F)(F)F)c2)C(=S)N1c1ccc(CNC(=O)c2ccncn2)c(F)c1 [Compound 14] |  |  | 22 |  |
| CC1(C)C(=O)N(c2ccc(C#N)c(C(F)(F)F)c2)C(=S)N1c1ccc(CNC(=O)c2cncnc2)c(F)c1 [Compound 15] | 320 | > 10000 |  | activity at 3 µM [3]: 81%; activity at 10 µM [3]: 70% |
| CC(C)C(=O)NCc1ccc(N2C(=O)N(c3ccc(C#N)c(C(F)(F)F)c3)C(=O)C2(C)C)cc1F [Compound 20] | 1870 | > 10000 |  |  |
| CC1(C)C(=O)N(c2ccc(C#N)c(C(F)(F)F)c2)C(=O)N1c1ccc(CNC(=O)c2ccccn2)c(F)c1 [Compound 23] | 180 | > 10000 |  | activity at 3 µM [3]: 84%; activity at 10 µM [3]: 43% |
| CC1(C)C(=O)N(c2ccc(C#N)c(C(F)(F)F)c2)C(=O)N1c1ccc(CNC(=O)C2CC2)c(F)c1 [Compound 24] | 1090 | > 10000 |  |  |
| CC1(C)C(=O)N(c2ccc(C#N)c(C(F)(F)F)c2)C(=S)N1c1ccc(CNC(=O)c2cncs2)c(Cl)c1 [Compound 25] | 99 | > 10000 |  | activity at 3 µM [3]: 96%; activity at 10 µM [3]: 64% |
| CC1(C)C(=O)N(c2ccc(C#N)c(C(F)(F)F)c2)C(=O)N1c1ccc(CNC(=O)c2cncs2)cc1 [Compound 27] | 496 | > 10000 |  |  |
| CC1(C)C(=O)N(c2ccc(C#N)c(C(F)(F)F)c2)C(=O)N1c1ccc(CNC(=O)c2cccnc2)c(F)c1 [Compound 29] | 910 | > 10000 |  | activity at 3 µM [3]: 90%; activity at 10 µM [3]: 92% |
| CC1(C)C(=O)N(c2cnc(C#N)c(C(F)(F)F)c2)C(=S)N1c1ccc(CNC(=O)c2ncccn2)c(Cl)c1 [Compound 30] | 73 | > 10000 |  |  |
| CC1(C)C(=O)N(c2ccc(C#N)c(C(F)(F)F)c2)C(=S)N1c1ccc(CNC(=O)c2ncccn2)c(Cl)c1 [Compound 31] | 62 | > 10000 |  |  |
| Cc1ncsc1C(=O)NCc1ccc(N2C(=S)N(c3ccc(C#N)c(C(F)(F)F)c3)C(=O)C2(C)C)cc1Cl [Compound 32] | 120 | > 10000 |  | activity at 3 µM [3]: 93%; activity at 10 µM [3]: 62% |
| CC1(C)C(=O)N(c2ccc(C#N)c(C(F)(F)F)c2)C(=O)N1c1ccc(CNC(=O)c2ncccn2)cc1 [Compound 33] | 304 |  | 3 |  |
| CC1(C)C(=O)N(c2cnc(C#N)c(C(F)(F)F)c2)C(=S)N1c1ccc(CNC(=O)c2cncs2)c(Cl)c1 [Compound 36] | 580 | > 10000 |  | activity at 3 µM [3]: 82%; activity at 10 µM [3]: 59% |
| Cc1cccnc1C(=O)NCc1ccc(N2C(=S)N(c3ccc(C#N)c(C(F)(F)F)c3)C(=O)C2(C)C)cc1F [Compound 40] |  |  | 48 |  |

| Compound | IC50 [1] [nM] | IC50 [2] [nM] | inhibition at 10 µM [2] [%] | further results |
| --- | --- | --- | --- | --- |
| CC1CC1C(=O)NCc1ccc(N2C(=S)N(c3ccc(C#N)c(C(F)(F)F)c3)C(=O)C2(C)C)cc1F (stereo not drawn) [Compound 41] |  |  |  | inhibition at 1 µM [1]: 88% |
| Cc1ccccc1C(=O)NCc1ccc(N2C(=S)N(c3ccc(C#N)c(C(F)(F)F)c3)C(=O)C2(C)C)cc1F [Compound 43] |  |  | 0 | inhibition at 1 µM [1]: 94% |
| CC1(C)C(=O)N(c2ccc(C#N)c(C(F)(F)F)c2)C(=S)N1c1ccc(CNC(=O)c2ccccc2F)c(F)c1 [Compound 47] |  |  | 46 |  |
| CC1(C)C(=O)N(c2cnc(C#N)c(C(F)(F)F)c2)C(=S)N1c1ccc(CNC(=O)c2ccccn2)c(F)c1 [Compound 50] |  |  |  | inhibition at 10 µM ([2]; 10 μM single concentration): 69% |
| Cc1ncsc1C(=O)NCc1ccc(N2C(=S)N(c3cnc(C#N)c(C(F)(F)F)c3)C(=O)C2(C)C)cc1F [Compound 51] |  |  |  | inhibition at 1 µM [1]: 93%; inhibition at 10 µM ([2]; 10 μM single concentration): 35% |
| CC1(C(=O)NCc2ccc(N3C(=S)N(c4ccc(C#N)c(C(F)(F)F)c4)C(=O)C3(C)C)cc2F)CC1 [Compound 52] |  |  | 56 |  |
| CC1(C)C(=O)N(c2ccc(C#N)c(C(F)(F)F)c2)C(=S)N1c1cnc(CNC(=O)c2ccccn2)c(F)c1 [Compound 53] |  |  | 66 |  |
| CC1(C)C(=O)N(c2ccc(C#N)c(C(F)(F)F)c2)C(=S)N1c1ccc(CNC(=O)c2cocn2)c(F)c1 [Compound 54] |  |  | 56 |  |
| Cc1ncsc1C(=O)NCc1ncc(N2C(=S)N(c3ccc(C#N)c(C(F)(F)F)c3)C(=O)C2(C)C)cc1F [Compound 55] |  |  | 58 |  |
| Cc1nnc(C(=O)NCc2ccc(N3C(=S)N(c4ccc(C#N)c(C(F)(F)F)c4)C(=O)C3(C)C)cc2F)o1 [Compound 62] |  |  | 0 |  |
| CN1CC(C(=O)NCc2ccc(N3C(=S)N(c4ccc(C#N)c(C(F)(F)F)c4)C(=O)C3(C)C)cc2F)C1 [Compound 63] |  |  | 0 |  |
| CC1(C)C(=O)N(c2ccc(C#N)c(C(F)(F)F)c2)C(=S)N1c1ccc(CN2Cc3ncccc3C2=O)c(F)c1 [Compound 66, 4-(3-(3-fluoro-4-((5-oxo-5H-pyrrolo[3,4-b]pyridin-6(7H)-yl)methyl)phenyl)-4,4-dimethyl-5-oxo-2-thioxoimidazolidin-1-yl)-2-(trifluoromethyl)benzonitrile] |  |  |  | inhibition at 1 µM [1]: 90%; GR antagonist assay, % of vehicle [2]: 31% |
| Cn1nccc1C(=O)NCc1ccc(N2C(=S)N(c3ccc(C#N)c(F)c3)C(=O)C2(C)C)cc1F [Compound 74] |  |  |  | inhibition at 10 µM ([2]; 10 μM single concentration): 17% |
| CC1(C)C(=O)N(c2ccc(C#N)c(C(F)(F)F)c2)C(=S)N1c1ccc(CNS(=O)(=O)c2ccccn2)c(F)c1 [Compound 75] |  |  | 40 |  |
| CC1(C)C(=O)N(c2ccc(C#N)c(F)c2)C(=S)N1c1ccc(CN2Cc3ncccc3C2=O)c(F)c1 [Compound 78, 2-fluoro-4-(3-(3-fluoro-4-((5-oxo-5,7-dihydro-6H-pyrrolo[3,4-b]pyridin-6-yl)methyl)phenyl)-4,4-dimethyl-5-oxo-2-thioxoimidazolidin-1-yl)benzonitrile] |  |  |  | inhibition at 10 µM ([2]; 10 μM single concentration): 0% |
| CC1(C)C(=O)N(c2ccc(C#N)c(C(F)(F)F)c2)C(=S)N1c1ccc(CNC(=O)c2ccc3[nH]ncc3c2)c(F)c1 [Compound 79] |  |  | 75 |  |
| CC1(C)C(=O)N(c2ccc(C#N)c(C(F)(F)F)c2)C(=S)N1c1ccc(CNC(=O)c2ccc3cn[nH]c3c2)c(F)c1 [Compound 80] |  |  | 38 |  |
| CC#C[C@]1(O)CC[C@H]2[C@@H]3CCC4=CC(=O)CCC4=C3[C@@H](c3ccc(N(C)C)cc3)C[C@@]21C [RU486, reference compound] |  |  |  | GR antagonist assay, % of vehicle [2]: 13%; inhibition at 1 µM ([2]; COS-7, read-out: GR antagonism inhibition at 1 μM): 72.8% |
